# From patent US20260217699A1, “BERBERINE TAUROURSODEOXYCHOLATE COMPOSITIONS AND METHODS THEREOF” (SHENZHEN HIGHTIDE BIOPHARMACEUTICAL LTD., priority 2023, published 2026)
# Columns and labels:
# Assay type in all cases: in vivo, Sprague-Dawley rats
# [1] = test system: 6-OHDA Stereotactic Injection Induced PD Rats; assay: Balance beam test; conditions: for Foot Slips Times / Passage Time: Mean ± SEM, N=10; for Foot Slips Times: Model 1.7 ± 0.2; for Passage Time: Model 10.9 ± 1.3
# From the text: (§1) The rats were respiratory anesthetized with isoflurane; the head was fixed to ensure that there was no movement and the brain surface was adjusted to be flat; the head was shaved, and a skin incision was made along the sagittal suture to expose the fontanel point; the glass electrode was positioned to the fontanel, and the axes of the coordinate monitor were zeroed to locate the brain areas of the SN and the Str based on the coordinates, in which the SN: AP=−5.0 mm; ML=−1.9 mm; DV=−8.5 mm, and Str: AP=+0.5 mm; ML=−3.0 mm; DV=−6.0 mm. […]; slowly inserted the needle into the localized area of SN and Str, waited for 10 min, and then administered the drug of 6-OHDA at a rate of […] for 10 min, and each animal was given […] of each of SN and Str area, and then the needle was slowly withdrawn after the drug was administered for 10 min, and the PD rat model was established.
# The rat was placed on a balance beam. The time was recorded it took for the rat to pass the balance beam as well as the number of foot slips (feet leave the top of the balance beam). The average of the two successful passing times and the number of foot slips were used as the evaluation criteria for the rat's locomotor balance ability. Information regarding beam test can also be found in the literature (Allbutt, et al. 2007 J Neurosci Methods 159(2):195-202; Fine, et al. 2014 Brain Res. 1574:96-104).
# In this study, 16 Sprague Dawley (SD) male rats 180g-220g were used to establish a PD model by stereotactic unilateral injection of 6-OHDA in the substantia nigra (SN) and striatum (Str) brain areas after one week of acclimatization feeding and were randomly divided into 2 groups of 8 rats each. One group was dosed with the test compound BTUDC 500 mg/kg (QD, p.o.) and the other group was the Model group, which was given an equal volume of 0.5% CMC-Na (QD, p.o.) as the test compound group. The animals were administered once a day for 21 consecutive days starting from the second day after modeling to evaluate the tolerability and therapeutic potential of BTUDC in the 6-OHDA PD model.
# (§2) Experimental Methods: Seventy 180-220g SD male rats were selected and fed for one week for accumulation, and the PD model was established by stereotactic unilateral injection of 6-OHDA in the Substantia Nigra (SN) and Striatum (Str) regions and were randomly divided into five groups according to their body weights including Madopar group (Madopar, 50 mg/kg), BTUDC-L group (BTUDC, 100 mg/kg), BTUDC-M group (BTUDC, 500 mg/kg), and BTUDC-H group (BTUDC, 1000 mg/kg), with 10 animals in each group. Another 10 SD male rats were taken for sham operation (only 4 μL of 0.9% NS containing 0.02% ascorbic acid was given to the SN and Str brain regions during modeling) as the Sham group. The drug was administered by gavage once daily continuously for 21 days starting on the second day of modeling (first day of dosing, D1). General observation was made during the dosing period. At the end of the administration, the test articles were evaluated for tolerance in this model and in behavioral apomorphine—asymmetric rotation test, beam test, rotarod test and grip strength test, immunofluorescence staining (TH, Ibal), and cerebrospinal fluid inflammatory factor assays to evaluate the pharmacodynamic effects of the test articles. Inflammatory factors tested included interleukin 6 (1L-6), inflammatory factor […], Tumor Necrosis Factor alpha (TNF-α), inflammatory assays were done in a total of 4 groups included Sham, Model, Madopar and BTUDC-H groups.
# [2] = test system: 6-OHDA Stereotactic Injection Induced PD Rats; assay: Apomorphine-asymmetric rotation test
# From the text: as §1
# The animals were tested three weeks post-administration. 0.5 mg/kg of apomorphine was injected intraperitoneally. The number of rotations of each rat in 30 min were recorded, and the rat appeared to rotate in place toward the opposite side of the injury using the rotating forelimb as a support point. […]
# Experimental Methods: Seventy 180-220g SD male rats were selected and fed for one week for accumulation, and the PD model was established by stereotactic unilateral injection of 6-OHDA in the Substantia Nigra (SN) and Striatum (Str) regions and were randomly divided into five groups according to their body weights including Madopar group (Madopar, 50 mg/kg), BTUDC-L group (BTUDC, 100 mg/kg), BTUDC-M group (BTUDC, 500 mg/kg), and BTUDC-H group (BTUDC, 1000 mg/kg), with 10 animals in each group. […] At the end of the administration, the test articles were evaluated for tolerance in this model and in behavioral apomorphine—asymmetric rotation test, beam test, rotarod test and grip strength test, immunofluorescence staining (TH, Ibal), and cerebrospinal fluid inflammatory factor assays to evaluate the pharmacodynamic effects of the test articles. […]
# [3] = test system: tyrosine hydroxylase (TH)-positive cells; assay: Immunofluorescence staining of TH in Str and SN brain regions; conditions: Mean ± SEM, N=15; for TH staining SN positive cells num.: Model 0.9 ± 0.5; for TH staining Str Fluorescence intensity: Model 11.1 ± 3.0
# Experimental: After the rat was anesthetized, the abdominal cavity and thorax were cut open with straight scissors to expose the heart. The blood was first flushed out with normal saline perfusion, and then paraformaldehyde was used for initial perfusion fixation. The head was cut off, and the brain case was carefully opened with tweezers, and the brain tissue was removed and placed in paraformaldehyde solution and fix for 24 h; on the second day, took out the brain tissue and placed in 20% sucrose solution for 24 h; on the third day, took out the brain tissue and placed in 30% sucrose solution for 24 h; on the fourth day, took out the brain tissue and placed in 35% sucrose solution for 24 h (increase the time or concentration appropriately according to the condition of sugar deposition in the brain tissues); took out the brain tissue, embedded it in OCT embedding agent, and cut brain slices at the thickness of […] with a freezing microtome.
# Immunohistochemical staining of TH and Iba-1 was performed on the sections. Sections were rewarmed for 30 min, closed at room temperature for 1 h with 50% serum+0.3% TritonX-100 in 50 μL per slice, shook off the slices, added primary antibody (diluted in PBS), overnight at 4° C.; rewarmed for 30 min; washed off primary antibody (PBS), 5 min×3 times; added secondary antibody (diluted in PBS) by backlighting, room temperature for 2 h; washed off secondary antibody (PBS), 5minx 3 times; added (4′,6-diamidino-2-phenylindole) (DAPI), and stayed at room temperature for 10 min; washed off DAPI, 5 min×3 times; added 70% glycerol to seal the slices to avoid air bubbles. Observed and took pictures under a microscope. Selected basically the same target brain area for each slice. Afterwards, ImageJ was used to count the signal number or area of the entire slice.
# as §2
# Dosing volume: 10 mL/kg • 1. General observation: During the period of drug administration, body weight, food intake test and cage side observation were conducted every 3 days. • 2. Behavioral test: After 21 days of administration, behavioral test was carried out on the following day. • 3. […]
# [4] = BTUDC-H 1000 mg/kg p.o. Qd 21 days, p<0.001 vs Model
# [5] = BTUDC-M 500 mg/kg p.o. Qd 21 days, p<0.001 vs Model
# [6] = BTUDC-L 100 mg/kg p.o. Qd 21 days, no significance mark
structure (smiles),measurement,setting,value
"COc1ccc2cc3[n+](cc2c1OC)CCc1cc2c(cc1-3)OCO2.C[C@H](CCC(=O)NCCS(=O)(=O)[O-])[C@H]1CC[C@H]2[C@@H]3[C@@H](O)C[C@@H]4C[C@H](O)CC[C@]4(C)[C@H]3CC[C@]12C [BTUDC, Berberine tauroursodeoxycholate]",Beam Test Number of feet slips,"[1]; 500 mg/kg QD p.o. 21 days, Model 1.313 ± 0.3772, P < 0.001 vs Model",0.250 ± 0.0945
same,Beam Test Passing time,"[1]; 500 mg/kg QD p.o. 21 days, Model 9.938 ± 1.8088, P < 0.001 vs Model",3.563 ± 0.6228 s
same,Foot Slips Times,[1]; [4],0.6 ± 0.2
same,Passage Time,[1]; [4],4.8 ± 0.4 s
same,Foot Slips Times,"[1]; BTUDC-L 100 mg/kg p.o. Qd 21 days, p<0.05 vs Model",1.0 ± 0.3
same,Passage Time,"[1]; BTUDC-L 100 mg/kg p.o. Qd 21 days, p<0.01 vs Model",8.0 ± 0.7 s
same,Foot Slips Times,"[1]; BTUDC-M 500 mg/kg p.o. Qd 21 days, p<0.01 vs Model",0.8 ± 0.2
same,Passage Time,[1]; [5],6.4 ± 0.7 s
same,difference in number of ipsilateral rotations within 30 minutes vs Model group,"[2]; 500 mg/kg QD p.o. 21 days, p>0.05",no statistically significant difference
same,number of rotational circles within 30 min of apomorphine injection vs Model group,[2]; BTUDC-H 1000 mg/kg p.o. Qd 21 days,significantly lower
same,Number of Ipsilateral Rotation,"[2]; within 30 minutes of apomorphine injection, 500 mg/kg/day p.o. 21 days, 8 rats, Model 126.380 ± 31.681",109.000 ± 23.670
same,TH staining SN positive cells num.,[3]; [4],12.7 ± 3.1
same,TH staining Str Fluorescence intensity,[3]; [4],65.8 ± 4.4
same,TH staining SN positive cells num.,[3]; [6],0.7 ± 0.3
same,TH staining Str Fluorescence intensity,[3]; [6],19.8 ± 3.5
same,TH staining SN positive cells num.,"[3]; BTUDC-M 500 mg/kg p.o. Qd 21 days, no significance mark",2.0 ± 0.6
same,TH staining Str Fluorescence intensity,[3]; [5],32.6 ± 5.5
